The source of these data is ChEMBL document CHEMBL1139745, “Synthesis and biological study of 4-aminopyrimidine-5-carboxaldehyde oximes as antiproliferative VEGFR-2 inhibitors” (Bioorg Med Chem Lett, 2006).

Molecules are shown by their SMILES.

Assay [1] concerns HeLa. In words: Antiproliferative activity against HeLa cells. Format: functional, cell-based. Particulars: Homo sapiens.
The test system of another assay is HCT-116. Kind of assay: Antiproliferative activity against HCT116 cells. It is filed as functional, cell-based. Particulars: Homo sapiens.
Another assay deals with A-375. In words: Antiproliferative activity against A375 cells. Particulars: Homo sapiens. Format: functional, cell-based.
The target of assay [2] is Vascular endothelial growth factor receptor 2 (Homo sapiens, UniProt P35968). Kind of assay: Inhibition of VEGFR2.
Assay [3] has as its system HeLa. Kind of assay: Cell cycle arrest by accumulation at G2 phase in human HeLa cells at 62.5 nM. Format: functional.
In assay [4] the test system is HeLa. In words: Cell cycle arrest in human HeLa cells by accumulation at G1 phase at 62.5 nM. Format: functional.
The test system of assay [5] is HeLa. Kind of assay: Cell cycle arrest in human HeLa cells by accumulation at S phase at 62.5 nM. Format: functional.

Sequence of Vascular endothelial growth factor receptor 2 (P35968 whole entry): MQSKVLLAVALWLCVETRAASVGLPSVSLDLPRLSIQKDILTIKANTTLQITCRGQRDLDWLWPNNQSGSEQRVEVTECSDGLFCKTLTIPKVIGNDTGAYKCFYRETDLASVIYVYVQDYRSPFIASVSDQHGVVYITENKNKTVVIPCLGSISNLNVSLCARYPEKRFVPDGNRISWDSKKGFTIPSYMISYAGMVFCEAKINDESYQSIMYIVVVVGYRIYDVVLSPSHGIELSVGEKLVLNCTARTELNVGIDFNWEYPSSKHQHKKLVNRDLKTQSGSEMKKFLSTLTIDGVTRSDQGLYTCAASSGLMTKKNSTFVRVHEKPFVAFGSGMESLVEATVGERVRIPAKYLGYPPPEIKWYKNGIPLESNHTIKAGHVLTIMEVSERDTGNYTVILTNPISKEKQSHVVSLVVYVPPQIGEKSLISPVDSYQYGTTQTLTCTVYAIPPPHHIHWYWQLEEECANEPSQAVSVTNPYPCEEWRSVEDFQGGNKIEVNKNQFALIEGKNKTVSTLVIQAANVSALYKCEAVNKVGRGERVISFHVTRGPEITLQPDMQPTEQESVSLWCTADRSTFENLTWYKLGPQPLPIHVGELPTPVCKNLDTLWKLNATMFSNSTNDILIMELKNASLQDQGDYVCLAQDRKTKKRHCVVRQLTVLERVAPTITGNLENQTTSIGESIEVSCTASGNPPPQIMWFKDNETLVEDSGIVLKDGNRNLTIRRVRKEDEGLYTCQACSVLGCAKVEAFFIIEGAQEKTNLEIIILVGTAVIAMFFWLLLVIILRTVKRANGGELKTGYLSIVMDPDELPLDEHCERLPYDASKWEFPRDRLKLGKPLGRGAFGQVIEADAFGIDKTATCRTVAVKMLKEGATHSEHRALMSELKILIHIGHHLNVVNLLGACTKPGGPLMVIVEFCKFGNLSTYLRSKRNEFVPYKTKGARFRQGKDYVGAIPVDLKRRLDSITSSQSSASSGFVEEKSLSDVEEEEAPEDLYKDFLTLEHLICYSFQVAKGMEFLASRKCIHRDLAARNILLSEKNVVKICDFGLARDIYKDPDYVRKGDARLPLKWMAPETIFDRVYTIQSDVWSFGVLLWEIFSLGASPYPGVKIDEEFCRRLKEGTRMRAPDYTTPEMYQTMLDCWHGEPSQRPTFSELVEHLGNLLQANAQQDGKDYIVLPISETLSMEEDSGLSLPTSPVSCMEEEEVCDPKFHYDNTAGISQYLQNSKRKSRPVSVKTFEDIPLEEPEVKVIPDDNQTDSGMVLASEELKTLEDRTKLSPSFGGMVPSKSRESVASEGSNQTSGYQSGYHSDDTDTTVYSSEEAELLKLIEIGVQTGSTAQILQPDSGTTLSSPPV

Turning to `Cc1cc2c(F)c(Oc3ncnc(N)c3/C=N/OCC3CCCCC3)ccc2[nH]1`, the half-inhibitory concentration (IC50) in the assay on HeLa [1] worked out at 22700 nM; with HCT-116, 16100 nM; in the assay with A-375, 4920 nM.

`CO/N=C/c1c(N)ncnc1Oc1ccc2c(ccn2C)c1`: the IC50 with HeLa [1] amounted to 375 nM; in the assay with HCT-116, 749 nM; in the assay on A-375 it was 326 nM.

As to `CO/N=C/c1c(N)ncnc1Oc1ccc2cccnc2c1`, the values for the IC50 in the assay with HeLa [1], in the assay on HCT-116 and with A-375 were 1820 nM, 2620 nM and 886 nM, respectively.

Consider `COCCO/N=C/c1c(N)ncnc1Oc1ccc2[nH]c(C)cc2c1F`, for which the IC50 with HeLa [1] came out at 308 nM; in the assay with HCT-116, 387 nM; with A-375, 233 nM.

As for `CO/N=C/c1c(N)ncnc1Oc1ccc2ncccc2c1`, the IC50 in the assay with HeLa [1] was 3430 nM; with HCT-116, 2870 nM; in the assay with A-375 it was 1820 nM.

For `Cc1cc2c(F)c(Oc3ncnc(N)c3/C=N/OCCO)ccc2[nH]1`, the IC50 worked out at 406 nM with HeLa [1], 323 nM with HCT-116 and 372 nM in the assay on A-375.

On to `COCCCO/N=C/c1c(N)ncnc1Oc1ccc2[nH]c(C)cc2c1F`, for which the IC50 turned out to be 346 nM with HeLa [1], 438 nM with HCT-116 and 300 nM with A-375.

Turning to `Cc1cc2c(F)c(Oc3ncnc(N)c3/C=N/O)ccc2[nH]1`, the IC50 stood at 33 nM in assay [2], 472 nM in the assay with HeLa [1], 1140 nM with HCT-116 and 492 nM in the assay with A-375.

Regarding `C=CCO/N=C/c1c(N)ncnc1Oc1ccc2[nH]c(C)cc2c1F`, the IC50 in the assay on HeLa [1] is 42 nM; in the assay with HCT-116, 40 nM; with A-375, 21 nM. For the same molecule, the figures for the Activity in the assay on HeLa [3], with HeLa [4] and in the assay on HeLa [5] were 99.76%, 0.24% and 0%, respectively.

For `Cc1cc2c(F)c(Oc3ncnc(N)c3/C=N/OCCCO)ccc2[nH]1`, the IC50 in the assay with HeLa [1] came out at 362 nM; in the assay with HCT-116 it was 452 nM; with A-375, 336 nM.

For the molecule `Cc1cc2c(F)c(Oc3ncnc(N)c3/C=N/OCCN3CCCC3)ccc2[nH]1`, the results for the IC50 with HeLa [1], in the assay on HCT-116 and with A-375 were 4220 nM, 4610 nM and 2160 nM, respectively.

Turning to `CO/N=C/c1c(N)ncnc1Oc1ccc2[nH]c(C)cc2c1`, the IC50 in the assay with HeLa [1] is 388 nM; in the assay with HCT-116, 386 nM; with A-375, 356 nM.

As for `CO/N=C/c1c(N)ncnc1Oc1ccc2[nH]cc(C)c2c1`, the results for the IC50 in the assay on HeLa [1], in the assay with HCT-116 and with A-375 were 306 nM, 385 nM and 132 nM, respectively.

With `CNCCO/N=C/c1c(N)ncnc1Oc1ccc2[nH]c(C)cc2c1F`, the IC50 in the assay with HeLa [1] stood at 2010 nM; in the assay on HCT-116, 3010 nM; with A-375 it was 345 nM.

Take `CO/N=C/c1c(N)ncnc1Oc1cc2cc[nH]c2cc1F`: the IC50 is 382 nM in the assay with HeLa [1], 422 nM in the assay on HCT-116 and 327 nM with A-375.

For the molecule `CCO/N=C/c1c(N)ncnc1Oc1ccc2[nH]c(C)cc2c1F`, the values for the IC50 in the assay on HeLa [1], in the assay with HCT-116 and in the assay with A-375 were 32 nM, 36 nM and 27 nM, respectively.

On to `CCCCO/N=C/c1c(N)ncnc1Oc1ccc2[nH]c(C)cc2c1F`, for which the IC50 with HeLa [1] stood at 607 nM; in the assay with HCT-116 it was 1000 nM; in the assay on A-375, 446 nM.

Turning to `CO/N=C/c1c(N)ncnc1Oc1ccc2[nH]ccc2c1F`, the IC50 with HeLa [1] was 401 nM; with HCT-116, 365 nM; with A-375 it was 492 nM.

On to `CO/N=C/c1c(N)ncnc1Oc1ccc2[nH]ccc2c1`, for which the IC50 in the assay with HeLa [1] was 1870 nM; with HCT-116, 3520 nM; with A-375, 783 nM.

Regarding `CCCO/N=C/c1c(N)ncnc1Oc1ccc2[nH]c(C)cc2c1F`, the results for the IC50 in the assay on HeLa [1], in the assay with HCT-116 and in the assay on A-375 were 40 nM, 30 nM and 28 nM, respectively.

Regarding `Cc1cc2c(F)c(Oc3ncnc(N)c3/C=N/OCc3ccccc3)ccc2[nH]1`, the IC50 with HeLa [1] is 266 nM; with HCT-116, 311 nM; in the assay with A-375, 62 nM.

The term IC50 denotes the concentration needed to halve the response being measured.
